Results: US11834663B2, “Fibrotic treatment” (Monash University, priority 2015, dated 2023)

Tested on: human cardiac fibroblasts (HCFs)
Experiment: Human cardiac fibroblasts stimulated with Ang II: α-SMA and collagen expression
Assay type: cell-based
Settings: HCFs + Ang II 0.1 μM, HFI-419 0.01 to 1 μM, approx. 72 hours; FIG. 26
Experimental: Commercially available human cardiac fibroblasts (HCF, Catalog #6300, Sciencell, CA, USA) were grown in T75 flask maintained in an incubator at 37° C., 5% CO2. Complete media composition: M199 media (#11150-059, life technologies)+10% FBS (#10437-028, life technologies)+1% Fibroblast Growth Supplement-2 (#2382, ScienCell)+1% penicillin/streptomycin 10,000 U/ml antibiotics (#15140-122, Life Technologies). Fresh complete media was replenished every alternate day until culture reached 70% confluence in which media is replenished daily until it reached approximately 90% confluence in order to passage/subculture. To subculture, media was discarded and culture was rinsed with warm PBS. After which, culture was detached using warm 0.05% Trypsin+EDTA with gentle swirling of flask to make sure cells were not adherent to surface of flask. Trypsin was then neutralized with complete media and suspension was then transferred into a new falcon tube and centrifuged at 1000 rpm for 5 minutes. […]
Once treatment is complete, cells were washed with warm PBS and detached using Accutase (A6964, Sigma), with 5 minutes incubation at 37° C. […] The supernatant (˜20 ul) was transferred to a new tube and protein concentrations were measured using Biorad Lowry protein assay. Protein quantification of respective markers were performed via standard western blot analysis. […]

SMILES: CCOC(=O)C1=C(NC(C)=O)Oc2cc(O)ccc2C1c1cccnc1 (centres unmarked) [HFI-419]
- collagen production in human cardiac fibroblasts: dose-dependently decreased
- myofibroblast expression (α-SMA) in human cardiac fibroblasts: dose-dependently decreased
